Activity calls are given as the source filed them. The calls are words filed in the database; no cut-off is given here.
Experiments:
[1] = test system: Calu-1; assay: Antiproliferative activity against human Calu-1 cells assessed as viable cell signal at maximum growth inhibition incubated for 72 hrs by celltiter-glo assay relative to control; type: functional
[2] = test system: T47D; assay: Antiproliferative activity against human T47D cells assessed as of viable cell signal at minimum maximum cell growth incubated for 72 hrs by celltiter-glo assay relative to control; type: functional
[3] = test system: SK-MEL-2; assay: Antiproliferative activity against human SK-MEL-2 cells assessed as of viable cell signal at minimum maximum cell growth incubated for 72 hrs by celltiter-glo assay relative to control; type: functional
[4] = test system: NCI-H1155; assay: Antiproliferative activity against human NCI-H1155 cells assessed as growth inhibition incubated for 72 hrs by celltiter-glo assay; type: functional
[5] = test system: THP-1; assay: Antiproliferative activity against human THP-1 cells assessed as viable cell signal at maximum growth inhibition incubated for 72 hrs by celltiter-glo assay relative to control; type: functional
[6] = Antiproliferative activity against human A375P cells assessed as of viable cell signal at minimum maximum cell growth incubated for 72 hrs by celltiter-glo assay relative to control; type: functional
[7] = test system: MX1; assay: Antiproliferative activity against human MX1 cells assessed as viable cell signal at maximum growth inhibition incubated for 72 hrs by celltiter-glo assay relative to control; type: functional
[8] = test system: COLO 205; assay: Antitumor activity against human COLO 205 cells xenografted in Nude mouse assessed as increase in pHH3 level at 50 to 100 mg/kg, ip measured at 24 to 48 hrs by immunohistochemistry analysis; type: functional, organism-based; conditions: dose 50-100 mg/kg, time 24-48 hrs
[9] = test system: OVCAR-4; assay: Antiproliferative activity against human OVCAR-4 cells assessed as viable cell signal at maximum growth inhibition incubated for 72 hrs by celltiter-glo assay relative to control; type: functional
[10] = test system: NCI-H358; assay: Antiproliferative activity against human NCI-H358 cells assessed as growth inhibition incubated for 72 hrs by celltiter-glo assay; type: functional
[11] = test system: Panc 02.03; assay: Antiproliferative activity against human Panc 02.03 cells assessed as of viable cell signal at minimum maximum cell growth incubated for 72 hrs by celltiter-glo assay relative to control; type: functional
[12] = target: Serine/threonine-protein kinase WNK3 (Homo sapiens) (UniProt Q9BYP7); assay: Inhibition of N-terminal his6-tagged recombinant human WNK3 (1 to 434 residues) expressed in baculovirus Sf21 insect cells at 10 uM relative to control
Sequence of Serine/threonine-protein kinase WNK3 (Homo sapiens) (Q9BYP7 whole entry, the tested form may be a part): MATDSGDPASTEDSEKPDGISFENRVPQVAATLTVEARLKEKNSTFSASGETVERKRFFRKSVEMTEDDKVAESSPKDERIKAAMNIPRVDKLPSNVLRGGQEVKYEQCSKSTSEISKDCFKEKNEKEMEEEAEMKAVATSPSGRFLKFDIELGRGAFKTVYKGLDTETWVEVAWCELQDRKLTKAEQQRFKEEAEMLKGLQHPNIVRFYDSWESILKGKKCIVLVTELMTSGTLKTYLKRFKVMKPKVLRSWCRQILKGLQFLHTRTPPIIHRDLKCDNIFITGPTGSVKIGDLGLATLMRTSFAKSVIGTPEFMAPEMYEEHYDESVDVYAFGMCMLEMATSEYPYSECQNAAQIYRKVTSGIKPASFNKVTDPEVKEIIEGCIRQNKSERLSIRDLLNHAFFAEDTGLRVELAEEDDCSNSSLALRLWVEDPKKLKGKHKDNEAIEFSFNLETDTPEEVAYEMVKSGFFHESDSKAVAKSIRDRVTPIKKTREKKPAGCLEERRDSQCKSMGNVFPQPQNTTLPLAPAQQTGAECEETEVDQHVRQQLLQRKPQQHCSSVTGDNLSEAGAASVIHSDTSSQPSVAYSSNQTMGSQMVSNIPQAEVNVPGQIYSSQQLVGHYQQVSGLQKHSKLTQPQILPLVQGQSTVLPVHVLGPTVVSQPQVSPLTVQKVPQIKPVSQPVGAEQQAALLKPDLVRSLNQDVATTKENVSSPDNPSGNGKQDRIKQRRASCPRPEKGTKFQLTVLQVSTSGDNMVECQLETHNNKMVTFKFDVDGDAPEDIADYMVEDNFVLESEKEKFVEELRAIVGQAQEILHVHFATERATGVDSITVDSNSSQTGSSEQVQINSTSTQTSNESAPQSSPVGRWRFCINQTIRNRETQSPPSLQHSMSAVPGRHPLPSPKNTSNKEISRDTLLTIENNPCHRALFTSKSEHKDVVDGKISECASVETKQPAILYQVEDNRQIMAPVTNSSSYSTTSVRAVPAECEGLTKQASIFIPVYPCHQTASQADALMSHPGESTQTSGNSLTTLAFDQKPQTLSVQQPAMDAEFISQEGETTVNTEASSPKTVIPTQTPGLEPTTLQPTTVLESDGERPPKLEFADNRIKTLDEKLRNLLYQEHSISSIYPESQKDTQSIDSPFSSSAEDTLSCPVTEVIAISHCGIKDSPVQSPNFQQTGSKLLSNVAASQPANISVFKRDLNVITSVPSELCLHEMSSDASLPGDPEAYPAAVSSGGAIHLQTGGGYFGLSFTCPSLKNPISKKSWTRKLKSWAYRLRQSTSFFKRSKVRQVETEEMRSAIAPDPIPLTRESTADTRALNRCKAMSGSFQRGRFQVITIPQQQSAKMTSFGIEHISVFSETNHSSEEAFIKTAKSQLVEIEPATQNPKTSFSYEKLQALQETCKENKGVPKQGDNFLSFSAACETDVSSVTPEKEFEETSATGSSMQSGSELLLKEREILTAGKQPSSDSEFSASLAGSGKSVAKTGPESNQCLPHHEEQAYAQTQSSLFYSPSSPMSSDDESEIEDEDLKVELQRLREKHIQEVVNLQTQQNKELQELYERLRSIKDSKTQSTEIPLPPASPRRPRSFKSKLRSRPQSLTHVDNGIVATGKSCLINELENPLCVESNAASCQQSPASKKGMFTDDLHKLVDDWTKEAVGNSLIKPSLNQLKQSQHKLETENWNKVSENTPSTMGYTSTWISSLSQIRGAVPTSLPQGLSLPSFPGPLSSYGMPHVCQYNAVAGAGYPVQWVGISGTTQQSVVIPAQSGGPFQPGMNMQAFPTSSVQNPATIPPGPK

[13] = test system: LNCaP; assay: Antiproliferative activity against human LNCaP cells assessed as viable cell signal at maximum growth inhibition incubated for 72 hrs by celltiter-glo assay relative to control; type: functional
[14] = test system: NCI-H157; assay: Antiproliferative activity against human NCI-H157 cells assessed as viable cell signal at maximum growth inhibition incubated for 72 hrs by celltiter-glo assay relative to control; type: functional
[15] = test system: NCI-H1299; assay: Antiproliferative activity against human NCI-H1299 cells assessed as growth inhibition incubated for 72 hrs by celltiter-glo assay; type: functional
[16] = test system: LoVo; assay: Antiproliferative activity against human LoVo cells assessed as of viable cell signal at minimum maximum cell growth incubated for 72 hrs by celltiter-glo assay relative to control; type: functional
[17] = test system: SK-MEL-2; assay: Antiproliferative activity against human SK-MEL-2 cells assessed as growth inhibition incubated for 72 hrs by celltiter-glo assay; type: functional
[18] = test system: COLO 205; assay: Antitumor activity against human COLO 205 cells xenografted in ip dosed Nude mouse assessed as increase in pHH3 level measured at 24 to 48 hrs by […]; type: functional, organism-based; conditions: dose 50-100 mg/kg, time 24-48 hrs
[19] = test system: MDA-MB-468; assay: Induction of mitotic arrest in human MDA-MB-468 cells assessed as effect on pHH3 level at 10 to 250 nmol/L incubated for 19 hrs by ELISA analysis; type: functional, cell-based; conditions: dose 10-250 nmol/L
[20] = test system: SK-BR-3; assay: Antiproliferative activity against human SK-BR-3 cells assessed as of viable cell signal at minimum maximum cell growth incubated for 72 hrs by celltiter-glo assay relative to control; type: functional
[21] = test system: NCI-H82; assay: Antiproliferative activity against human NCI-H82 cells assessed as of viable cell signal at minimum maximum cell growth incubated for 72 hrs by celltiter-glo assay relative to control; type: functional
[22] = test system: SK-BR-3; assay: Antiproliferative activity against human SK-BR-3 cells assessed as growth inhibition incubated for 72 hrs by celltiter-glo assay; type: functional
[23] = test system: A-431; assay: Antiproliferative activity against human A-431 cells assessed as of viable cell signal at minimum maximum cell growth incubated for 72 hrs by celltiter-glo assay relative to control; type: functional
[24] = test system: SK-OV-3; assay: Antiproliferative activity against human SK-OV-3 cells assessed as of viable cell signal at minimum maximum cell growth incubated for 72 hrs by celltiter-glo assay relative to control; type: functional
[25] = test system: K562; assay: Antiproliferative activity against human K562 cells assessed as growth inhibition incubated for 72 hrs by celltiter-glo assay; type: functional
[26] = test system: COLO 205; assay: Antitumor activity against human COLO 205 cells xenografted in Nude mouse assessed as effect on Ki67 level at 50 mg/kg, ip administered one dose every 2 day repeated for 12 days by immunohistochemistry analysis; type: functional, organism-based; conditions: time 12.0 day
[27] = test system: HN5; assay: Antiproliferative activity against human HN5 cells assessed as growth inhibition incubated for 72 hrs by celltiter-glo assay; type: functional
[28] = test system: Jurkat; assay: Antiproliferative activity against human Jurkat cells assessed as viable cell signal at maximum growth inhibition incubated for 72 hrs by celltiter-glo assay relative to control; type: functional
[29] = target: Ribosomal protein S6 kinase alpha-1 (Homo sapiens) (UniProt Q15418); assay: Inhibition of N-terminal his6-tagged recombinant human RSK1 (2 to end residues) expressed in baculovirus Sf21 insect cells at 10 uM relative to control
Sequence of Ribosomal protein S6 kinase alpha-1 (Homo sapiens) (Q15418 whole entry): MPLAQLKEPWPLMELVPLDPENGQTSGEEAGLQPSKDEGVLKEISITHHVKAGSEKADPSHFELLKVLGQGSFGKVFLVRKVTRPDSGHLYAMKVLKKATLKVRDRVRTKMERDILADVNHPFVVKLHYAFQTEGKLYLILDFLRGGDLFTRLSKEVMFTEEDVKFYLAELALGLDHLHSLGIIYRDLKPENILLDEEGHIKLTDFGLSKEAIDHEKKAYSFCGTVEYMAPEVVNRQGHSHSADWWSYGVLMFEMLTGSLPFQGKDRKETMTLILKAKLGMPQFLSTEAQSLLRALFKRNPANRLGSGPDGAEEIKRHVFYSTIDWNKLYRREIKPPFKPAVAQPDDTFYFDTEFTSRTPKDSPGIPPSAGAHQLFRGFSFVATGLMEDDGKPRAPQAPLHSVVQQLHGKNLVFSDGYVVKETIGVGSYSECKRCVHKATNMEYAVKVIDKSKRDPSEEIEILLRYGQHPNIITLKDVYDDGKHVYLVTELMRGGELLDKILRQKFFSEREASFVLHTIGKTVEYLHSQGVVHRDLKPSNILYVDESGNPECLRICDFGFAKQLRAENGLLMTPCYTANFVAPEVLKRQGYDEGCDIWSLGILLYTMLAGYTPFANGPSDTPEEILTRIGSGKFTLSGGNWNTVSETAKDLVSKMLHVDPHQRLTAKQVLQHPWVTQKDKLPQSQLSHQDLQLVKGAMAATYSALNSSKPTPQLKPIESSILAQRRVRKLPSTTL

[30] = test system: NCI-H1155; assay: Antiproliferative activity against human NCI-H1155 cells assessed as viable cell signal at maximum growth inhibition incubated for 72 hrs by celltiter-glo assay relative to control; type: functional
[31] = target: PAS domain-containing serine/threonine-protein kinase (Homo sapiens) (UniProt Q96RG2); assay: Inhibition of recombinant human PASK at 10 uM relative to control
Sequence of PAS domain-containing serine/threonine-protein kinase (Homo sapiens) (Q96RG2 whole entry, the tested form may be a part): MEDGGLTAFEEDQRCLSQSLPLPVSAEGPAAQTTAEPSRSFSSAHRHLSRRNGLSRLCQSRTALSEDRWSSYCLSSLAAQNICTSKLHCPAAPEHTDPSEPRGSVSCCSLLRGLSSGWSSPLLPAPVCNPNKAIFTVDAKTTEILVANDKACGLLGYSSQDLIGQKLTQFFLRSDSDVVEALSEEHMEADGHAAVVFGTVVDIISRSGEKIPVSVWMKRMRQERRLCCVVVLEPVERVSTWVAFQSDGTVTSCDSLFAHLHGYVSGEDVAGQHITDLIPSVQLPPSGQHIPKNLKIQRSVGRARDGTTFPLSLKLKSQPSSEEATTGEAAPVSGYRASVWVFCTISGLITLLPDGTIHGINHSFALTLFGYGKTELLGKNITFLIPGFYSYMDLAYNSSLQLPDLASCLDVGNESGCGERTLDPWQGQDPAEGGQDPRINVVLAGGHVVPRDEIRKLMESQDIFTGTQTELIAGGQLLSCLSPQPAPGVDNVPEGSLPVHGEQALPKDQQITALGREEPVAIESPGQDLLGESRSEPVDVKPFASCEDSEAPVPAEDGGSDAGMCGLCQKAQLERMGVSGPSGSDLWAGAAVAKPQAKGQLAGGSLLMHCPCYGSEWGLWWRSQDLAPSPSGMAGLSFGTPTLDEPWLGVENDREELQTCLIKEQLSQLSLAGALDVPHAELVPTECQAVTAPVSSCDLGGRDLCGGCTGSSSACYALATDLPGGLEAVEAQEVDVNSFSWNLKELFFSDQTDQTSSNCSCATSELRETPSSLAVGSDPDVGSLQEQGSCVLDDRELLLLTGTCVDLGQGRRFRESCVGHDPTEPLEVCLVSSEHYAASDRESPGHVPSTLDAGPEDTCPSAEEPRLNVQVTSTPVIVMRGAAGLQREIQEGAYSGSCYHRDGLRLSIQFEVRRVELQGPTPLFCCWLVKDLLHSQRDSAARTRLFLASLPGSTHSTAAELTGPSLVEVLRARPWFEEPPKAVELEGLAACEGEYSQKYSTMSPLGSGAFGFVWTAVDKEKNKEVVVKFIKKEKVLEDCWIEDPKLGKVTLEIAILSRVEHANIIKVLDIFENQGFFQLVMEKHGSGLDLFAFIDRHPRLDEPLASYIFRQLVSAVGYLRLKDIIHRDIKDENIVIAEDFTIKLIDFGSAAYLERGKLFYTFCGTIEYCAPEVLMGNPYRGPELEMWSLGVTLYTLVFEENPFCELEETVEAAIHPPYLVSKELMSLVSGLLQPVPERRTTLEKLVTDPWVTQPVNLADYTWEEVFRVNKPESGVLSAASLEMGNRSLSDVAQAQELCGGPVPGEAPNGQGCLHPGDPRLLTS

[32] = test system: LNCaP; assay: Antiproliferative activity against human LNCaP cells assessed as of viable cell signal at minimum maximum cell growth incubated for 72 hrs by celltiter-glo assay relative to control; type: functional
[33] = test system: HL-60; assay: Antiproliferative activity against human HL-60 cells assessed as of viable cell signal at minimum maximum cell growth incubated for 72 hrs by celltiter-glo assay relative to control; type: functional
[34] = test system: RKO; assay: Antiproliferative activity against human RKO cells assessed as viable cell signal at maximum growth inhibition incubated for 72 hrs by celltiter-glo assay relative to control; type: functional
[35] = test system: RKO; assay: Antiproliferative activity against human RKO cells assessed as growth inhibition incubated for 72 hrs by celltiter-glo assay; type: functional
[36] = test system: PANC-1; assay: Antiproliferative activity against human PANC-1 cells assessed as of viable cell signal at minimum maximum cell growth incubated for 72 hrs by celltiter-glo assay relative to control; type: functional
[37] = test system: COLO 205; assay: Antitumor activity against human COLO 205 cells xenografted in Nude mouse assessed as increase in pHH3 level at 50 to 100 mg/kg, ip administered one dose every 2 day repeated for 12 days by immunohistochemistry analysis; type: functional, organism-based; conditions: dose 50-100 mg/kg, time 12.0 day
[38] = test system: NCI-H460; assay: Antiproliferative activity against human NCI-H460 cells assessed as of viable cell signal at minimum maximum cell growth incubated for 72 hrs by celltiter-glo assay relative to control; type: functional
[39] = test system: MCF7; assay: Antiproliferative activity against human MCF7 cells assessed as growth inhibition incubated for 72 hrs by celltiter-glo assay; type: functional

C[C@@H](Oc1cc(-n2cnc3ccc(CN4CCN(C)CC4)cc32)sc1C(N)=O)c1ccccc1C(F)(F)F [GSK-461364]
Emax [1]: 371%
Emin [2]: 205%
Emin [3]: 71.3%
GI50 [4]: 14.4 nM
Emax [5]: 349%
Emin [6]: 220.5%
Emax [7]: 498%
Activity [8]: Active
Emax [9]: 342%
GI50 [10]: 13.4 nM
Emin [11]: 192%
inhibition [12]: 68%
Emax [13]: 470%
Emax [14]: 847%
GI50 [15]: 61.4 nM
Emin [16]: 23.4%
GI50 [17]: 14 nM
Activity [18]: Dose-Dependent Effect
Activity [19]: Active
Emin [20]: 54.6%
Emin [21]: 22.8%
GI50 [22]: 15.8 nM
Emin [23]: 151.5%
Emin [24]: 103.8%
GI50 [25]: 19.4 nM
Activity [26]: Active
GI50 [27]: 15.4 nM
Emax [28]: 753%
inhibition [29]: 72%
Emax [30]: 645%
inhibition [31]: 63%
Emin [32]: 99.3%
Emin [33]: 15.3%
Emax [34]: 456%
GI50 [35]: 62.9 nM
Emin [36]: 114.1%
Activity [37]: Active
Emin [38]: 94.6%
GI50 [39]: 6.4 nM

Source: ChEMBL document CHEMBL5705887, “Distinct concentration-dependent effects of the polo-like kinase 1-specific inhibitor GSK461364A, including differential effect on apoptosis” (Cancer Res, 2009)
